According to patent publication US9000050B2, “SHIP1 modulators and related methods” (The University of British Columbia, priority 2010, dated 2015):
Converted amounts (≈) assume the structure as drawn.

Assays:
[1] = target: T1, His-hSHIP1 enzyme (Homo sapiens, UniProt Q92835); assay: His-hSHIP1 enzyme activation assay (IP4 substrate, Biomol Green phosphate release); format: biochemical; details: percentage increase relative to background; concentrations ≦300 μM
T1 construct: His
T1 sequence (Q92835 1-1189): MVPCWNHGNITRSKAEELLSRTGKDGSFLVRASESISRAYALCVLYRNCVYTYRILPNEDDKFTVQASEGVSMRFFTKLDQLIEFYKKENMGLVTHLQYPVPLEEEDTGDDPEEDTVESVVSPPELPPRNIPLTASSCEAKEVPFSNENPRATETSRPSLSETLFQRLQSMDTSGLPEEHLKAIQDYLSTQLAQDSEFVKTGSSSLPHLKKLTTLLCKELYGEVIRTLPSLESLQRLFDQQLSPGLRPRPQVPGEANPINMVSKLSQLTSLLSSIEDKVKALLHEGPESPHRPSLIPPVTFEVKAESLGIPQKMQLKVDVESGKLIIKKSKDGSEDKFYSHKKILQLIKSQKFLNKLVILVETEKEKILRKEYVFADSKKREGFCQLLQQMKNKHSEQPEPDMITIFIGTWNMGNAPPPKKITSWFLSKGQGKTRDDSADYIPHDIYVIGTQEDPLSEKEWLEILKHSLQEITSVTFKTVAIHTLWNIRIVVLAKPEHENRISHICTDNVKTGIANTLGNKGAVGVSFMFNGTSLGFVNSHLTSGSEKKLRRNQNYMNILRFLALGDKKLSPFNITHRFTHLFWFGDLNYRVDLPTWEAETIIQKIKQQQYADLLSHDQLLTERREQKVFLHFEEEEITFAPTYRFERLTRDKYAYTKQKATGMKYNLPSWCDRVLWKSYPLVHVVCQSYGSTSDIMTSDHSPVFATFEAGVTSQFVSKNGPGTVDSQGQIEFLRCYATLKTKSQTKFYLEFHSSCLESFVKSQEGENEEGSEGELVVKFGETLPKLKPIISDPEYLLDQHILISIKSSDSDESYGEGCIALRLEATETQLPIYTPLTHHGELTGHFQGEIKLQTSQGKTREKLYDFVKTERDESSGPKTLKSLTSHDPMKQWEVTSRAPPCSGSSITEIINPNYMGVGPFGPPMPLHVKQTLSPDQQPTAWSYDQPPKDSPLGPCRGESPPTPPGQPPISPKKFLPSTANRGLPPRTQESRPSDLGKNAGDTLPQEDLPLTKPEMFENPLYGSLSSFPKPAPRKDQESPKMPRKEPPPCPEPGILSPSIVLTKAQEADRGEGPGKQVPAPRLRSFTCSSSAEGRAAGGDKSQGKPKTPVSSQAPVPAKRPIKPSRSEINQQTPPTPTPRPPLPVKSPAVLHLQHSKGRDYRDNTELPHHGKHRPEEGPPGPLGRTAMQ
Procedure: Test compounds are dissolved in 95% ethanol to form stock solutions. Before screening, the stock solutions are diluted with Phosphatase Assay Buffer (20 mM Tris-HCL, 10 mM MgCl2 pH 7.5, 0.02% Tween 20) to form working assay solutions that contain 10% ethanol. The assay is carried out on 96-well microtiter plates using a modified procedure of that reported by Ong et al., Blood 110, 1942-1949, 2007 and Yang et al., Org Lett 7, 1073-1076, 2005, both of which references are incorporated herein by reference in their entirety.
Each reaction contains 5 μL of His-hSHIP1 enzyme (15-20 ng), 10 μL of the substrate, 1,3,4,5-inositol tetrakisphosphate (IP4; 50 μM final), 5 μL of Phosphatase Assay Buffer, and 5 μL of test compound at various concentrations in 10% ethanol (0-300 μM final). Control blanks are also prepared by replacing His-hSHIP1 enzyme, IP4, or test compounds with Phosphatase Assay Buffer. After adding the reaction components in a 96-well microtiter plate on ice, the reaction is mixed by briefly shaking the plate vigorously. The reaction is then incubated at 37° C. for 15 min with gentle shaking followed by addition of 100 μL of Biomol Green Reagent (BIOMOL, PA, USA) to terminate the reaction. The free phosphate released from IP4 by His-hSHIP1 binds to the Biomol Green Reagent, which turns the dye to green color. After incubating the mixture for 20 min at room temperature for color development, the absorbance is read with SpectraMax Plus 96-well plate reader (Molecular Devices, Sunnyvale, Calif., USA) at a wavelength of 650 nm.
Percent (%) activation in Table 2 is expressed as a percentage increase relative to background. Scoring is expressed as follows: +(<25%); ++(≧25% but <50%); +++(≧50%).

[2] = Water solubility (24 h stirring in deionized water, HPLC); format: physicochemical; details: thermodynamic from solid, stirred 24 hours, read-out: Soluble Concentration
Procedure: Samples are weighed accurately in duplicate (˜3 mg each) in 4 mL glass vials. The appropriate amount of deionized water is added to obtain a final concentration of 6 mg/mL. A stir bar is placed in the vial and the two mixtures are stirred for 24 hours, after which the samples are filtered using a glass filter membrane. The resulting filtrate is centrifuged in a glass conical tube for 10 minutes at 10,000 rpm to sediment any precipitate that may have passed through the glass membrane. The supernatant is sampled for HPLC analysis. The concentration of the test compound is determined by HPLC using a six-point standard curve of the compound prepared in methanol.

Activation of His-hSHIP1 Enzyme, Scoring (percent activation) [1]	solubility at 24 h [2] [µg/mL]	Structure (SMILES)
++ (≧25% but <50%)	–	COc1cc2c(c(OC)c1)[C@@]1(C)CC[C@@H]3C(C)(C)[C@H](O)CC[C@@]3(C)[C@@H]1C2 (racemic) [5a/5b]
+++ (≧50%)	–	CC1(C)C(=O)CC[C@]2(C)[C@@H]1CC[C@]1(C)c3c(O)cc(O)cc3C[C@@H]21 (racemic) [7a/7b]
++ (≧25% but <50%)	–	CC1(C)[C@H](O)CC[C@]2(C)[C@@H]1CC[C@]1(C)c3c(O)cc(O)cc3C[C@@H]21 (racemic) [16a/16b]
++ (≧25% but <50%)	–	COc1cc(C)c2c(c1)C[C@H]1[C@]3(C)CC[C@@H](O)C(C)(C)[C@H]3CC[C@]21C (racemic) [17a/17b]
++ (≧25% but <50%)	–	Cc1cc(O)cc2c1[C@@]1(C)CC[C@@H]3C(C)(C)C(=O)CC[C@@]3(C)[C@@H]1C2 (racemic) [19a/19b]
+ (<25%)	1400	CC1(C)[C@H]2CC[C@]3(C)c4c(O)cc(O)cc4C[C@H]3[C@]2(C)CC[C@@H]1N.Cl [8a•HCl, (3S,4aS,6aS,11aS,11bS)-3-Amino-4,4,6a,11b-tetramethyl-2,3,4,4a,5,6,6a,11,11a,11b-decahydro-1H-benzo[a]fluorene-7,9-diol Hydrochloride]
+ (<25%)	–	CC1(C)[C@@H](N)CC[C@]2(C)[C@H]3Cc4cc(O)cc(O)c4[C@]3(C)CC[C@@H]12 [Compound 9b]
–	133 (≈ 402 µM)	CC1(C)[C@@H](O)CC[C@]2(C)[C@H]3Cc4cc(O)cc(O)c4[C@]3(C)CC[C@@H]12 [Compound 16b, (3S,4aR,6aR,11aR,11bR)-2,3,4,4a,5,6,6a,11,11a,11b-decahydro-4,4,6a,11b-tetramethyl-1H-benzo[a]fluorene-3,7,9-triol]
